Measurements taken from US20120122727A1, “IN VITRO METHOD FOR PREDICTING WHETHER A COMPOUND IS GENOTOXIC IN VIVO” (priority 2009, published 2012).
Where two headings read alike, the source gives them in different places.

What was measured:
[1] = test system: primary mouse hepatocytes; test: Class prediction true GTX vs false GTX by PAM from hepatocyte gene expression
Experimental: PAM uses gene expression data to calculate the shrunken centroid for each class and identifies the specific genes that determine the centroid most. Based on the nearest shrunken centroid, PAM is also capable of predicting to which class an unknown sample belongs (27). Class prediction was performed after 24 h and 48 h of exposure.
For this analysis, the gene list with differentially expressed probe sets was used. For each exposure period, 3 sets of genes (classifiers) were generated by PAM, using all ten treatments, based on the smallest estimated misclassification error rate (generated by 10-fold cross-validation) and a >80% predicted test probability. This was done by using 2 experiments as training set and the third experiment for validation. This was done for all 3 possible combinations, each time leaving out another experiment. For each time point, the classifiers that were in common between the three training sets, were set as the final classifier set for that time point
For the purpose of validating the class discrimination models with the final classifier sets, gene expression data were generated for two additional true GTX compounds, phenacetin and DMBA, and for three False GTX compounds, cur, ethylacrylate and resorcinol and the vehicle control for exposure periods of 24 and 48 h.

[2] = cited from earlier work
[3] = 24 h exposure, independent triplicate treatments
[4] = 48 h exposure, independent triplicate treatments
[5] = PAM class prediction, 24 h, Exp 1
[6] = PAM class prediction, 24 h, Exp 2
[7] = PAM class prediction, 24 h, Exp 3
[8] = PAM class prediction, 48 h, Exp 1
[9] = PAM class prediction, 48 h, Exp 2
[10] = PAM class prediction, 48 h, Exp 3
[11] = known class of the validation compound (GTX = true GTX, FP-GTX = false GTX)

Row | Compound | class prediction (true GTX / false GTX) [1, 3] | class prediction (true GTX / false GTX) [1, 4] | Prediction 24 h Exp 1 [1, 5] | Prediction 24 h Exp 2 [1, 6] | Prediction 24 h Exp 3 [1, 7] | Prediction 48 h Exp 1 [1, 8] | Prediction 48 h Exp 2 [1, 9] | Prediction 48 h Exp 3 [1, 10] | predicted test probability ([1]; both time points (24 and 48 h)) [%] | Genotoxic class [2, 11] | Prediction 24 h Exp 1 [1] | Prediction 24 h Exp 2 [1] | Prediction 24 h Exp 3 [1] | Prediction 48 h Exp 1 [1] | Prediction 48 h Exp 2 [1] | Prediction 48 h Exp 3 [1] | class prediction (true GTX / false GTX) [1] | predicted test probability [1] [%] | Genotoxic class ([2]; in vivo) | predicted test probability ([1]; mouse) [%]
1 | Cc1c2ccccc2c(C)c2c1ccc1ccccc12 [DMBA] | classified correctly | classified correctly | GTX | GTX | GTX | GTX | GTX | GTX | 100 | GTX | – | – | – | – | – | – | – | – | – | –
2 | CCOc1ccc(NC(C)=O)cc1 [Phen] | – | – | GTX | GTX | GTX | FP-GTX | FP-GTX | FP-GTX | – | GTX | – | – | – | – | – | – | – | – | – | –
3 | COc1cc(/C=C/C(=O)CC(=O)/C=C/c2ccc(O)c(OC)c2)ccc1O [cur] | – | – | – | – | – | – | – | – | – | – | FP-GTX | FP-GTX | FP-GTX | FP-GTX | FP-GTX | FP-GTX | classified correctly | 100 | FP-GTX | –
4 | C=CC(=O)OCC [ethylacrylate] | classified correctly | classified correctly | FP-GTX | FP-GTX | FP-GTX | FP-GTX | FP-GTX | FP-GTX | 100 | – | – | – | – | – | – | – | – | – | FP-GTX | –
5 | Oc1cccc(O)c1 [resorcinol] | – | – | – | – | – | – | – | – | – | FP-GTX | FP-GTX | FP-GTX | FP-GTX | FP-GTX | FP-GTX | FP-GTX | classified correctly | – | – | 100
